This note sets out measurements from patent publication US20180148418A1, “AMIDO-SUBSTITUTED CYCLOHEXANE DERIVATIVES” (Bayer Pharma Aktiengesellschaft, priority 2015, published 2018).

The target in one assay is T1, TNKS2 (Homo sapiens, UniProt Q9H2K2).
T1 construct: purchased BPS Bioscience, San Diego, USA 80572 (TNKS2 Histone Ribosylation Assay Kit)
T1 sequence (Q9H2K2 1-1166): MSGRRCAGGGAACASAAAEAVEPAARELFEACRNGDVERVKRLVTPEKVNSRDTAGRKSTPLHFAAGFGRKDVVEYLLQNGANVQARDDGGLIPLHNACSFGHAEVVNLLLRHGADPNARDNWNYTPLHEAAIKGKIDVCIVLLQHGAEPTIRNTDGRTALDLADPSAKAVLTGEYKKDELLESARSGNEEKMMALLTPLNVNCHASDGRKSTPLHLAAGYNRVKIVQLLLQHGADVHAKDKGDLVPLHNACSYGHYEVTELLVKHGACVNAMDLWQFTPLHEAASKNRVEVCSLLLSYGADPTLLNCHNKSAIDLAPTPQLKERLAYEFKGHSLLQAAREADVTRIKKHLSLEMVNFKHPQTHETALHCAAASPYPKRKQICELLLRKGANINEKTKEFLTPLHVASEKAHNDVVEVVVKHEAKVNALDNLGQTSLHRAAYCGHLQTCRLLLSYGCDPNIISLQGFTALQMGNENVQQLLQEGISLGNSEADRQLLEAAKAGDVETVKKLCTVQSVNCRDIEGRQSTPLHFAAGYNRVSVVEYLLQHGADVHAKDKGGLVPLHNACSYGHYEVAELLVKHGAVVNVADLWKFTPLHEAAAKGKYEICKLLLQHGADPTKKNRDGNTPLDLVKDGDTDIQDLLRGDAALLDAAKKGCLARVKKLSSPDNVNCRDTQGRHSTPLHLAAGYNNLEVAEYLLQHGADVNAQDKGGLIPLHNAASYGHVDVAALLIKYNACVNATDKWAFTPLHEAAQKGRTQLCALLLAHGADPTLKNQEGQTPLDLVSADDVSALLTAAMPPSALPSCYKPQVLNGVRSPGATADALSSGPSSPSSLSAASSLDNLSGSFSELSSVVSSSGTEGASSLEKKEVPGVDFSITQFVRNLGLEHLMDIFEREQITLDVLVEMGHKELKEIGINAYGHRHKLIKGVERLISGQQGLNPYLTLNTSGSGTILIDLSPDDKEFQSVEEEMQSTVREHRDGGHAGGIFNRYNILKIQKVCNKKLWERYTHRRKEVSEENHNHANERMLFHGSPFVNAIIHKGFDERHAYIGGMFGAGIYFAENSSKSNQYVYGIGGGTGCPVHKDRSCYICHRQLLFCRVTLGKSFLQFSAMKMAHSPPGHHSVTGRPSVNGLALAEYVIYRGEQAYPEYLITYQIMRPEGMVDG
Briefly: TNKS2 Assay B (auto-parsylation, [3H]-NAD+ SPA). Format: biochemical. The conditions noted are these: 6 nM TNKS2, auto-parsylation, over night at room temperature.

The test system of assay [1] is wildtype Wnt signaling cascade. Briefly: HEK293 TOP assay (Super TopFlash luciferase reporter, Wnt-3a stimulated). The note with it: Homo sapiens, HEK293, 16 h, HEK293 TOP reporter cells, Wnt3a at EC50, 16 hours. Format: cell-based. In short, it runs like this: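 Compound series (50 μM down to 15 nM, 3.16-fold) diluted from DMSO 50-fold into CAFTY buffer, pH 7.4, 2 mM Ca^2+, 0.01% BSA, applied to Wnt-3a-stimulated HEK293 TopFlash and FOP reporter lines in parallel. Cells seeded 10000/well 24 h before; luciferase signal measured.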
A general note: Reporter assays use an easily measured gene product as a stand-in for the process of interest.

Broadly, the IC50 is the concentration needed to halve the response being measured. `Cc1cc(C)n2ncc(C(=O)N[C@H]3CC[C@@]4(CCN(c5cccc(Cl)c5)C4=O)CC3)c2n1` [Example 270, N-[(trans)-2-(3-chlorophenyl)-1-oxo-2-azaspiro[4.5]dec-8-yl]-5,7-dimethylpyrazolo[1,5-a]pyrimidine-3-carboxamide]: the IC50 on TNKS2 stood at 280 nM; in assay [1], 8.9 nM.
In the same order, the values of `CNC(=O)c1nc[nH]c1C(=O)N[C@H]1CC[C@@]2(CCN(c3ccccc3Cl)C2=O)CC1` [Example 264, N^5-[(trans)-2-(2-chlorophenyl)-1-oxo-2-azaspiro[4.5]dec-8-yl]-N^4-methyl-1H-imidazole-4,5-dicarboxamide] are 4 nM and 2.3 nM.
Take `Cc1ccnc2c(C(=O)N[C@H]3CC[C@@]4(CCN(c5ccc(F)cc5Cl)C4=O)CC3)cnn12` [Example 222, N-[(trans)-2-(2-chloro-4-fluorophenyl)-1-oxo-2-azaspiro[4.5]dec-8-yl]-7-methylpyrazolo[1,5-a]pyrimidine-3-carboxamide]: the concentration for half-maximal inhibition (IC50) amounted to 6.5 nM on TNKS2 and 2.1 nM in assay [1].
For `Cc1cc(C(F)F)n2ncc(C(=O)N[C@H]3CC[C@@]4(CCN(c5ccc(F)cc5Cl)C4=O)CC3)c2n1` [Example 224, N-[(trans)-2-(2-chloro-4-fluorophenyl)-1-oxo-2-azaspiro[4.5]dec-8-yl]-7-(difluoromethyl)-5-methylpyrazolo[1,5-a]pyrimidine-3-carboxamide], in that order: 11 nM and 0.83 nM.
For `O=C(NCCO)c1nc[nH]c1C(=O)N[C@H]1CC[C@H](C(=O)Nc2ccc(F)cc2Cl)CC1` [Example 18, N^5-{trans-4-[(2-chloro-4-fluorophenyl)carbamoyl]cyclohexyl}-N^4-(2-hydroxyethyl)-1H-imidazole-4,5-dicarboxamide], the IC50 was determined as 120 nM on TNKS2 and 150 nM in assay [1].
In the same order, the values of `CNC(=O)c1nc[nH]c1C(=O)N[C@H]1CC[C@H](C(=O)Nc2ccncc2Cl)CC1` [Example 11, N^5-{trans-4-[(3-chloropyridin-4-yl)carbamoyl]cyclohexyl}-N^4-methyl-1H-imidazole-4,5-dicarboxamide] are 210 nM and 140 nM.
For `COc1ccn2ncc(C(=O)N[C@H]3CC[C@@]4(CCN(c5ccc(F)cc5Cl)C4=O)CC3)c2n1` [Example 218, N-[(trans)-2-(2-chloro-4-fluorophenyl)-1-oxo-2-azaspiro[4.5]dec-8-yl]-5-methoxypyrazolo[1,5-a]pyrimidine-3-carboxamide], in that order: 4.8 nM and 16 nM.
Regarding `O=C(N[C@H]1CC[C@H](C(=O)Nc2ccc(F)cc2Cl)CC1)c1[nH]cnc1C(=O)N1CC2(COC2)C1` [Example 14, N-{trans-4-[(2-chloro-4-fluorophenyl)carbamoyl]cyclohexyl}-4-(2-oxa-6-azaspiro[3.3]hept-6-ylcarbonyl)-1H-imidazole-5-carboxamide], the concentration for half-maximal inhibition (IC50) turned out to be 37 nM at TNKS2 and 120 nM in assay [1].
In the same order, the values of `C[C@]1(C(=O)Nc2ccc(F)cc2Cl)CC[C@H](NC(=O)c2cnn3cccnc23)CC1` [Example 179, N-{trans-4-[(2-chloro-4-fluorophenyl)carbamoyl]-4-methylcyclohexyl}pyrazolo[1,5-a]pyrimidine-3-carboxamide] are 330 nM and 410 nM.
In the same order, the values of `O=C(NCC(F)(F)F)c1nc[nH]c1C(=O)N[C@H]1CC[C@H](C(=O)Nc2ccc(F)cc2Cl)CC1` [Example 21, N^5-{trans-4-[(2-chloro-4-fluorophenyl)carbamoyl]cyclohexyl}-N^4-(2,2,2-trifluoroethyl)-1H-imidazole-4,5-dicarboxamide] are 83 nM and 79 nM.
Take `O=C(N[C@H]1CC[C@H](C(=O)Nc2ccc(F)cc2Cl)CC1)c1cnn2ccccc12` [Example 205, N-{trans-4-[(2-chloro-4-fluorophenyl)carbamoyl]cyclohexyl}pyrazolo[1,5-a]pyridine-3-carboxamide]: the IC50 turned out to be 2500 nM at TNKS2 and 500 nM in assay [1].
As to `NC(=O)c1nc[nH]c1C(=O)N[C@H]1CC[C@@]2(CCN(c3ccc(F)cc3Cl)C2=O)CC1` [Example 186, N^5-[(trans)-2-(2-chloro-4-fluorophenyl)-1-oxo-2-azaspiro[4.5]dec-8-yl]-1H-imidazole-4,5-dicarboxamide], the IC50 amounted to 7.4 nM against TNKS2 and 2.1 nM in assay [1].
For `Cc1ccn2ncc(C(=O)N[C@H]3CC[C@@]4(CCN(c5ccc(F)cc5Cl)C4=O)CC3)c2n1` [Example 221, N-[(trans)-2-(2-chloro-4-fluorophenyl)-1-oxo-2-azaspiro[4.5]dec-8-yl]-5-methylpyrazolo[1,5-a]pyrimidine-3-carboxamide], in that order: 3.8 nM and 1.5 nM.
`CC1CCN(CCNC(=O)c2nc[nH]c2C(=O)N[C@H]2CC[C@H](C(=O)Nc3ccc(F)cc3Cl)CC2)CC1` [Example 12, N^5-{trans-4-[(2-chloro-4-fluorophenyl)carbamoyl]cyclohexyl}-N^4-[2-(4-methylpiperidin-1-yl)ethyl]-1H-imidazole-4,5-dicarboxamide]: the figures for the 50% inhibitory concentration (IC50) (against TNKS2; in assay [1]) were 7.2 nM and 72 nM, respectively.
For `CCNC(=O)c1nc[nH]c1C(=O)N[C@H]1CC[C@@]2(CCN(c3ccccc3Cl)C2=O)CC1` [Example 258, N^5-[(trans)-2-(2-chlorophenyl)-1-oxo-2-azaspiro[4.5]dec-8-yl]-N^4-ethyl-1H-imidazole-4,5-dicarboxamide], in that order: 6.3 nM and 2.3 nM.
With `CN1CC2(C1)CN(C(=O)c1nc[nH]c1C(=O)N[C@H]1CC[C@@]3(CCN(c4ccc(F)cc4Cl)C3=O)CC1)C2` [Example 185, N-[(trans)-2-(2-chloro-4-fluorophenyl)-1-oxo-2-azaspiro[4.5]dec-8-yl]-4-[(6-methyl-2,6-diazaspiro[3.3]hept-2-yl)carbonyl]-1H-imidazole-5-carboxamide], the IC50 against TNKS2 amounted to 1.7 nM; in assay [1], 6.1 nM.
In the same order, the values of `CC(C)NC(=O)c1nc[nH]c1C(=O)N[C@H]1CC[C@H](C(=O)Nc2ccc(F)cc2Cl)CC1` [Example 20, N^5-{trans-4-[(2-chloro-4-fluorophenyl)carbamoyl]cyclohexyl}-N^4-isopropyl-1H-imidazole-4,5-dicarboxamide] are 130 nM and 220 nM.
